Results: article PMC12593154, “Overcoming Solubility Challenges: Micronization of Berberine Using the GAS Antisolvent Technique” (ACS Omega, 2025)

Tests used:
[1] = Particle size by scanning electron microscopy (length and width of 200 particles); type: physicochemical; conditions: SEM, GAS at 35 °C, 80 bar
Method: Berberine was micronized using the antisolvent gas technique based on the studies of Pessoa et al. (2019) and Sakata et al. (2021). First, the solution was prepared at 1 mg/mL with the selected solvents and then added to the cell. The CO2 was introduced into the cell at a flow rate of 10 and 20 mL/min until the pressure reached 80 bar, with an operating temperature of 35 °C. The mixture was held at 80 bar for 10 min for homogenization. The solvent was removed by passing CO2 at constant pressure with open inlet and outlet valves. Once all the solvent had been removed, the reaction cell was depressurized, and the particles were collected.
Morphology and particle size were examined by scanning electron microscopy (JEOL JSM-6390LV.). Length and width measurements of 200 particles were obtained for each sample using Size Meter Software (version 1.1).

[2] = Solubility analysis of berberine in organic solvents (excess compound, 24 h agitation, spectrophotometer); type: physicochemical; conditions: organic solvent or mixture, thermodynamic from solid
Method: The solubility study of the compound in different solvents was carried out. Acetone, ethanol, methanol, 1-propanol, 1-butanol, and dichloromethane were used. An excess compound was added to 100 mL of solvent at 25 and 35 °C. The solution was agitated at 100 rpm for 24 h to achieve solid–liquid equilibrium. It was then left for 2 h without stirring to allow the sedimentation of the insolubilized particles. An aliquot was taken and analyzed with a spectrophotometer.

[3] = listed as Nonmicronized berberine

- particle size, length [1, 3]: 13.24 μm
- particle size, width [1, 3]: 6.39 μm
- particle size, length ([1]; listed as Raw): 13.24 ± 8.66 μm
- particle size, width ([1]; listed as Raw): 6.39 ± 5.39 μm
- solubility at 24 h ([2]; 1-butanol, 25 °C): 5.4 ± 0.578 µg/mL
- solubility at 24 h ([2]; 1-propanol, 25 °C): 3 ± 0.168 µg/mL
- solubility at 24 h ([2]; 1-propanol, 35 °C): 4.33 ± 0.082 µg/mL
- solubility at 24 h ([2]; acetone, 25 °C): 0.16 ± 0.004 µg/mL
- solubility at 24 h ([2]; acetone, 35 °C): 0.2 ± 0.007 µg/mL
- solubility at 24 h ([2]; dichloromethane, 25 °C): 1.27 ± 0.032 µg/mL
- solubility at 24 h ([2]; dichloromethane, 35 °C): 3.47 ± 0.091 µg/mL
- solubility at 24 h ([2]; ethanol, 25 °C): 2.82 ± 0.086 µg/mL
- solubility at 24 h ([2]; ethanol, 35 °C): 4.57 ± 0.254 µg/mL
- solubility at 24 h ([2]; methanol, 25 °C): 15.4 ± 1.61 µg/mL
- solubility at 24 h ([2]; methanol, 35 °C): 35 ± 1.98 µg/mL
Compound: COc1ccc2cc3[n+](cc2c1OC)CCc1cc2c(cc1-3)OCO2 [Berberine, Berberine chloride]
